Laboratory results from article PMC6920827, “Characterization of the Expression and Functions of Two Odorant-Binding Proteins of Sitophilus zeamais Motschulsky (Coleoptera: Curculionoidea)” (Insects, 2019).
“Also recorded” adds a separate entry of the source. Like-named read-outs stand apart in the source and are kept apart here.

Key:
SzeaOBP1 = SzeaOBP1 (Sitophilus zeamais, UniProt A0A4P9CZ78); experiment: Fluorescence competitive binding assay (1-NPN probe) with recombinant SzeaOBP1; conditions: for binding to SzeaOBP1, in words: fluorescence competitive binding
Sequence of SzeaOBP1 (A0A4P9CZ78 entry or part of it): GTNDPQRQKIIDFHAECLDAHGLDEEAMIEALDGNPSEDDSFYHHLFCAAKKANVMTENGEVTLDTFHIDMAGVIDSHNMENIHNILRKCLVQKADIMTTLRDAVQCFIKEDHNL
Description: (§1) Emission fluorescence spectra were recorded on a Fluoromax-4500 fluorescence spectrophotometer (Hitachi, Tokyo, Japan) at room temperature in right-angle configuration, with a 1 cm light-path quartz cuvette and 5 nm slits for both excitation and emission. The protein was dissolved in 50 mM Tris-HCl buffer (pH 7.4), and ligands were added as 1 mM methanol solutions. A methanol solution of N-Phenyl-1-naphthylamine (1-NPN) (1 mM) was used as the fluorescent probe, and chromatography-grade methanol was used as the solvent. For determination of the binding constants of the SzeaOBPs with the probe, the excitation wavelength was set at 337 nm, and the emission wavelength was increased from 370 to 500 nm for scanning. The target SzeaOBP proteins were diluted in Tris-HCl buffer (pH 7.4) to a final concentration of 2 μM. After the sample was added, the fluorescence intensity was allowed to stabilize (approximately 15 s), and the maximum fluorescence intensity was recorded; the binding constant between the protein and probe was determined. This process was repeated three times for each sample. Then, the ligands (odorant standard samples) were diluted with pure methanol for competitive binding analysis. The final concentration of each ligand was […]. The final concentration of ligands in the colorimetric dish increased by 2 μM upon adding the ligands one by one. […] The binding constants between the target SzeaOBP proteins and the ligands were determined. The fluorescence intensity was measured by adding 50 mM Tris-HCl buffer, SzeaOBP protein, and the fluorescence probe 1-NPN to the colorimetric dish for fluorescence measurement. The final concentration was 2 μM. When the fluorescence intensity was stable, the maximum fluorescence intensity was recorded, and then the ligands dissolved in methanol were added to the colorimetric dish one by one. The concentration increased from 2 μM, and the changes in fluorescence intensity were recorded. Each measurement was repeated three times.
(§2) To calculate the binding constants, the fluorescence intensity and ligand concentration were plotted using GraphPad Prism 5. Assuming that 1-NPN binds to the protein at a 1:1 ratio and that the protein was 100% active, the curve was linearized using a Scatchard plot.

SzeaOBP28 = SzeaOBP28 (Sitophilus zeamais, UniProt A0A4V1GPX2); experiment: Fluorescence competitive binding assay (1-NPN probe) with recombinant SzeaOBP28; conditions: for binding to SzeaOBP28, in words: fluorescence competitive binding
Sequence of SzeaOBP28 (A0A4V1GPX2 entry or part of it): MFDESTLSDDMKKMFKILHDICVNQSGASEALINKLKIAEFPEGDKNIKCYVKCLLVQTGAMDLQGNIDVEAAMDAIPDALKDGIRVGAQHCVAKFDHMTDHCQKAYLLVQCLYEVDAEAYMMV
Description: as §1, §2

adult S. zeamais = experiment: Behavioural experiment in a Y-tube olfactometer, normal adults; type: in vivo, Sitophilus zeamais; conditions: normal insects, 10 min observation
Description: The behavioral experiments were designed to test the results for selected odorants. The odorant compounds used in behavioral experiments are from Table 1. To avoid the effects of temperature and light on the experiment, the evaluations were performed in a constant temperature and humidity (CTH) room at 28 ± 1 °C and 80% relative humidity under dim light supplied by a red fluorescent tube with no natural lighting. A Y-tube olfactometer system that was previously described by Yusuf and Takabayashi was used to test the attractiveness of different odorant treatments to adult maize weevils. The system comprised a central tube (10 cm long) and two lateral arms (each 15 cm long and 15 mm wide). The angles between the two arms were 75°. Each arm was connected to a glass chamber (200 mL capacity) holding the different odorants. The different parts of the device were connected in the following order: air pump, activated carbon filter, distilled water humidifier, odorant source device, gas flow meter, and Y-tube olfactometer. The parts were connected by Teflon tubes. Airflow through both arms was generated by applying air pressure, and the air was purified using a charcoal-filled gas wash bottle. The airflow through the arms of the Y-tube (150 mL/min/arm) was adjusted by using flow metres, which were positioned between the flasks and the Y-tube. A clean Y-tube was used for each test to avoid carryover of odorants.
Before bioassays, according to the experimental requirements, the odorant source was placed in the odorant source device, which was then ventilated for 15 min so that the odorant filled the tube to ensure accuracy of the test results. The antennae and appendages of the selected insects were verified to be intact, and the insects were confirmed to be active. The insects were introduced from the base of the main arm of the Y-tube olfactometer. The selected odorant was used for the treatment group, and a blank was used for the control group. A single adult S. zeamais insect was introduced into the Y-tube olfactometer at the entrance of the stem, with a maximum observation duration of 10 min per beetle, and the responses were considered positive when the insects reached at least 2 cm along the arm connected to the test chambers. […] Insects were used only once and then discarded. Each odorant was used to test 30 adult maize weevils, and the number of male and female insects per test was the same. Three groups of experiments were repeated for three times.

[1] = calculated from IC50 with K1-NPN 8.590 μM, protein and 1-NPN 2 μM, Tris-HCl pH 7.4, read-out: Ki SzeaOBP1
[2] = displacement of 1-NPN, protein and 1-NPN 2 μM, Tris-HCl pH 7.4, read-out: IC50 SzeaOBP1
[3] = calculated from IC50 with K1-NPN 7.214 μM, protein and 1-NPN 2 μM, Tris-HCl pH 7.4, read-out: Ki SzeaOP28
[4] = displacement of 1-NPN, protein and 1-NPN 2 μM, Tris-HCl pH 7.4, read-out: IC50 SzeaOP28

SMILES | Ki (SzeaOBP1; [1]) | IC50 (SzeaOBP1; [2]) | Ki (SzeaOBP28; [3]) | IC50 (SzeaOBP28; [4]) | further results
CCCCCC=O [1-Pentanecarbaldehyde] | – | – | – | – | IC50 (SzeaOBP1): 6.07 ± 0.154 µM; Ki (SzeaOBP1): 5.18 ± 0.132 µM; IC50 (SzeaOBP28): 59.4 ± 1.21 µM; Ki (SzeaOBP28): 48.7 ± 0.852 µM
COc1cc(C=O)ccc1O [4-Hydroxy-3-methoxybenzaldehyde] | – | – | – | – | behavioural response (attraction) of male and female adults vs blank control (adult S. zeamais): responded strongly; also recorded: stimulated activity in a significantly higher number of normal male and female weevils than the control treatment; IC50 (SzeaOBP1): 4.37 ± 0.203 µM; Ki (SzeaOBP1): 3.73 ± 0.173 µM; IC50 (SzeaOBP28): 24.7 ± 2.34 µM; Ki (SzeaOBP28): 20.2 ± 1.92 µM; binding to SzeaOBP28, in words (SzeaOBP28): pronounced binding affinity
CC(=O)CCC=C(C)C [6-Methyl-5-hepten-2-one] | – | – | – | – | IC50 (SzeaOBP1): 6.5 ± 0.15 µM; Ki (SzeaOBP1): 5.55 ± 0.128 µM; IC50 (SzeaOBP28): 45.8 ± 1.23 µM; Ki (SzeaOBP28): 37.6 ± 1.01 µM
CC1=CC[C@@H]2C[C@H]1C2(C)C [(+)-a-Pinene] | > 51.2 µM | > 60 µM | > 49.2 µM | > 60 µM | binding to SzeaOBP1, in words (SzeaOBP1): did not bind; binding to SzeaOBP28, in words (SzeaOBP28): did not bind
CC(=O)O [Acetic acid (glacial)] | 15.7 ± 0.717 µM | 18.4 ± 0.84 µM | > 49.2 µM | > 60 µM | –
CC(C)=O [Acetone] | 4.54 ± 0.172 µM | 5.32 ± 0.201 µM | 39.8 ± 0.731 µM | 48.6 ± 0.861 µM | –
O=Cc1ccccc1 [Benzaldehyde] | – | – | – | – | IC50 (SzeaOBP1): 5.2 ± 0.092 µM; Ki (SzeaOBP1): 4.44 ± 0.079 µM; IC50 (SzeaOBP28): > 60 µM; Ki (SzeaOBP28): > 49.2 µM
COCCOC(=O)c1ccccc1C(=O)OCCOC [Bis(methylglycol) phthalate, Bis(2-methoxyethyl) phthalate] | – | – | – | – | IC50 (SzeaOBP1): 4.76 ± 0.147 µM; Ki (SzeaOBP1): 4.07 ± 0.125 µM; IC50 (SzeaOBP28): 38.87 ± 0.2 µM; Ki (SzeaOBP28): 31.86 ± 0.164 µM
CCCCCCCCO [Capryl alcohol] | 6.67 ± 0.199 µM | 7.81 ± 0.233 µM | > 49.2 µM | > 60 µM | –
CC(C)C=O [Isobutyraldehyde] | 4.26 ± 0.138 µM | 4.99 ± 0.162 µM | > 49.2 µM | > 60 µM | –
c1ccc(Nc2cccc3ccccc23)cc1 [Ligand 1-NPN, N-Phenyl-1-naphthylamine, reference compound] | – | – | – | – | Kd (SzeaOBP1): 8.59 µM; Kd (SzeaOBP28): 7.21 µM
CCCC(C)=O [Ligand 2-Pentanone, 2-Pentanone] | – | – | – | – | IC50 (SzeaOBP1): 11.6 ± 0.312 µM; Ki (SzeaOBP1): 9.92 ± 0.267 µM; IC50 (SzeaOBP28): > 60 µM; Ki (SzeaOBP28): > 49.2 µM
Cc1occc(=O)c1O [Maltol (3-hydroxy-2-methyl-4-pyrone)] | 5.28 ± 0.333 µM | 6.18 ± 0.39 µM | > 49.2 µM | > 60 µM | –
C=CC(=C)CCC=C(C)C [Myrcene (stabilized with BHT)] | 30.3 ± 0.798 µM | 35.5 ± 0.931 µM | > 49.2 µM | > 60 µM | –
CCCCCCCC=O [n-Octanaldehyde] | 3.22 ± 0.103 µM | 3.77 ± 0.12 µM | > 49.2 µM | > 60 µM | behavioural response (attraction) of male and female adults vs blank control (adult S. zeamais): no obvious effect

The next lines start with results.

Ki (SzeaOBP1; [1]) | IC50 (SzeaOBP1; [2]) | Ki (SzeaOBP28; [3]) | IC50 (SzeaOBP28; [4]) | SMILES | further results
4.2 ± 0.087 µM | 4.92 ± 0.102 µM | > 49.2 µM | > 60 µM | CCC(C)C=O (stereo not drawn) [2-Methylbutyraldehyde] | behavioural response (attraction) of male and female adults vs blank control (adult S. zeamais): Significant differences
6.51 ± 0.163 µM | 7.62 ± 0.191 µM | > 49.2 µM | > 60 µM | CC(C)CC=O [3-Methylbutanal] | –
2.75 ± 0.139 µM | 3.22 ± 0.162 µM | > 49.2 µM | > 60 µM | CCCCCCCCCCCCCCCCO [Cetanol] | behavioural response (attraction) of male and female adults vs blank control (adult S. zeamais): Significant differences; binding to SzeaOBP1, in words (SzeaOBP1): extremely high binding affinity
> 51.2 µM | > 60 µM | > 49.2 µM | > 60 µM | CCCCCCCCCC=O [Decanal] | binding to SzeaOBP1, in words (SzeaOBP1): did not bind; binding to SzeaOBP28, in words (SzeaOBP28): did not bind
4.87 ± 0.111 µM | 5.71 ± 0.13 µM | > 49.2 µM | > 60 µM | CCCCCCC=O [Heptaldehyde] | –
4.67 ± 0.159 µM | 5.47 ± 0.186 µM | > 49.2 µM | > 60 µM | CCCCCCO [Ligand 1-Hexanol, 1-Hexanol] | –
6.94 ± 0.234 µM | 8.13 ± 0.274 µM | > 49.2 µM | > 60 µM | CCCCCCCCCO [Ligand 1-Nonanol, 1-Nonanol] | –
> 51.2 µM | > 60 µM | > 49.2 µM | > 60 µM | CCCCC/C=C\C/C=C\CCCCCCCC(=O)O [Linoleic acid] | binding to SzeaOBP1, in words (SzeaOBP1): did not bind; binding to SzeaOBP28, in words (SzeaOBP28): did not bind
> 51.2 µM | > 60 µM | > 49.2 µM | > 60 µM | CCCCCCCCCCCCCCCC [N-Hexadecane, N-hexadecane] | –
4.42 ± 0.095 µM | 5.18 ± 0.111 µM | 48.2 ± 1.1 µM | 58.9 ± 1.34 µM | CCCCCCCCC=O [Nonanal] | –
24.2 ± 1.78 µM | 28.3 ± 2.08 µM | 40.8 ± 1.41 µM | 49.7 ± 1.72 µM | CCCCCCCCCCCCCCCC(=O)O [Palmitic Acid, Palmitic acid] | –
> 51.2 µM | > 60 µM | > 49.2 µM | > 60 µM | CCCCCCCCCCCCCCC [Pentadecane] | –
4.88 ± 0.103 µM | 5.71 ± 0.121 µM | > 49.2 µM | > 60 µM | CCCCC=O [Valeraldehyde] | behavioural response (attraction) of male and female adults vs blank control (adult S. zeamais): responded strongly
